Source: ChEMBL document CHEMBL1141468, “Photoactivated enediynes as targeted antitumoral agents: efficient routes to antibody and gold nanoparticle conjugates” (Bioorg Med Chem Lett, 2008)

Experiment: Radiation-induced photodegradation in […] X174 Rf1 DNA assessed as conversion of type 2 DNA at 1 uM after 3 hrs

Activity: 24%
SMILES: O=C(O)CCOCCOCCOCCOCCOCCOCCOCCOCCOCCOCCOCCOCCOCCC(=O)OCc1ccc(C#Cc2ccccc2C#Cc2ccccc2)cc1
